Like-named read-outs stand apart in the source and are kept apart here.
How the values were obtained:
Format in all cases: cell-based, human
HCT-15 = experiment: 3H thymidine proliferation assay, HCT-15
Experimental: (§1) This example generally describes the procedures used to assay the antiproliferative activity of compounds of this invention or their conjugates. Human tumor cell lines were obtained from the American Type Culture Collection (ATCC), P.O. Box 1549, Manassas, Va. 20108, USA, and cultured according to instruction from the ATCC. Cells were seeded at 1.0×10^3 or 1.0×10^4 cells/well in 96-well plates for 3 h for ATP assays or ^3H thymidine assays, respectively. 1:3 serial dilutions of free (unconjugated) compounds or their conjugates were added to the wells. Plates were allowed to incubate for 24 to 72 h. The ^3H thymidine plates were pulsed with 1.0 μCi of ^3H-thymidine per well for the last 24 hours of the total incubation period, harvested, and read on a Top Count Scintillation Counter (Packard Instruments, Meriden, Conn.). ATP levels in the ATP plates were measured using the […]-GLO® Luminescent Cell Viability kit following the manufacturer's manual and read on a GLOMAX® 20/20 luminometer (both from Promega, Madison, Wis., USA). The EC50 values—the concentration at which an agent inhibits or reduces cell proliferation by 50% —were determined using PRISM™ software, version 4.0 (GraphPad Software, La Jolla, Calif., USA).
(§2) Using the ^3H thymidine or the ATP luminescence assay, or both, the activities of compounds of this invention were assayed against the following cancer cell lines: HCT-15 (colorectal cancer, multi-drug resistant (MDR)); Hep3B (liver cancer); LNCaP (prostate cancer, androgen receptor positive (AR^+)); MDA-MB-231 (breast cancer, estrogen receptor, progesterone receptor, and Her2 negative (triple negative)); A2058 (melanoma); U-87 MG (glioblastoma); NCI-H460 (NSCLC); A549 (NSCLC); HPAC (pancreatic cancer, primary); PC3 (prostate cancer, AR); BT474 (breast cancer, Her2 highly positive (Her2hi)); SKOV3 (ovarian cancer, Her2hi); 786-O (renal cancer); UO-31 (renal cancer, MDR); NCI-H740 (SCLC); DMS53 (SCLC); SK-BR3 (breast cancer, Her2hi); ZR-75 (breast cancer, estrogen receptor positive); OVCAR3 (ovarian cancer); HL-60 (APL); OVCAR8/Adr (ovarian cancer, MDR); CEM-Cl (ALL); Nomo-1 (AML); RPMI-8226 (MM)); Raji (lymphoma); SW-480 (colorectal cancer, metastatic); SW-620 (colorectal cancer); and H226 (lung cancer). (Not all compounds were assayed against all cell lines.)
(§3) Table 2 provides the data for proliferation assays using the ^3H thymidine method, with an incubation period of 72 h.

Hep3B = experiment: 3H thymidine proliferation assay, Hep3B
Experimental: as §1, §2, §3

MDA-MB-231 = experiment: 3H thymidine proliferation assay, MDA-MB-231
Experimental: as §1, §2, §3

U-87 MG [1] = experiment: 3H thymidine proliferation assay, U-87 MG
Experimental: as §1, §2, §3

NCI-H460 = experiment: 3H thymidine proliferation assay, NCI-H460
Experimental: as §1, §2, §3

A549 = experiment: 3H thymidine proliferation assay, A549
Experimental: as §1, §2, §3

SKOV3 = experiment: 3H thymidine proliferation assay, SKOV3
Experimental: as §1, §2, §3

CEM-C1 = experiment: 3H thymidine proliferation assay, CEM-C1
Experimental: as §1, §2, §3

U-87 MG [2] = experiment: ATP luminescence proliferation assay, U-87 MG
Experimental: as §1, §2
(§4) Table 3 provides the data for the ATP luminescence proliferation assays, with an incubation period of 48, 72, or 96 h, as noted.

PC3 = experiment: ATP luminescence proliferation assay, PC3
Experimental: as §1, §2, §4

786-O = experiment: ATP luminescence proliferation assay, 786-O
Experimental: as §1, §2
FIGS. 12a and 12b show illustrative plots for ATP luminescence proliferation assays for a second set of compounds of this invention, against HL-60 and 786-O cells, respectively, with an incubation period of 72 h. FIGS. 12c and 12d show the plots for ^3H thymidine proliferation assays for the same set of compounds, again against HL-60 and 786-O cells, respectively, with a 72 h incubation period. In each instance, doxorubicin was used as a comparative compound.
as §4

SK-BR3 = experiment: ATP luminescence proliferation assay, SK-BR3
Experimental: as §1, §2, §4

OVCAR3 = experiment: ATP luminescence proliferation assay, OVCAR3
Experimental: as §1, §2, §4

RPMI-8226 = experiment: ATP luminescence proliferation assay, RPMI-8226
Experimental: as §1, §2, §4

Raji = experiment: ATP luminescence proliferation assay, Raji
Experimental: as §1, §2, §4

SW-620 = experiment: ATP luminescence proliferation assay, SW-620
Experimental: as §1, §2, §4

ZR-75 = experiment: 3H thymidine proliferation assay, ZR-75
Experimental: as §1, §2, §3

UO-31 = experiment: ATP luminescence proliferation assay, UO-31; conditions: ATP luminescence, UO-31, 48 h incubation; read-out: EC50 UO-31 (48 h)
Experimental: as §1, §2, §4

[3] = Homo sapiens, HCT-15, read-out: EC50, HCT-15, 3H thymidine method, 72 h incubation
[4] = Homo sapiens, Hep3B, read-out: EC50, Hep3B, 3H thymidine method, 72 h incubation
[5] = Homo sapiens, MDA-MB-231, read-out: EC50, MDA-MB-231, 3H thymidine method, 72 h incubation
[6] = Homo sapiens, U-87 MG, read-out: EC50, U-87 MG, 3H thymidine method, 72 h incubation
[7] = Homo sapiens, NCI-H460, read-out: EC50, NCI-H460, 3H thymidine method, 72 h incubation
[8] = Homo sapiens, A549, read-out: EC50, A549, 3H thymidine method, 72 h incubation
[9] = Homo sapiens, SK-OV-3, read-out: EC50, SKOV3, 3H thymidine method, 72 h incubation
[10] = Homo sapiens, CEM/C1, read-out: EC50, CEM-C1, 3H thymidine method, 72 h incubation
[11] = Homo sapiens, 72 h, read-out: EC50 U-87 MG (72 h), ATP luminescence, U-87 MG, 72 h incubation
[12] = Homo sapiens, PC-3, 48 h, read-out: EC50 PC3 (48 h), ATP luminescence, PC3, 48 h incubation
[13] = Homo sapiens, 786-0, 72 h, read-out: EC50 786-O (72 h), ATP luminescence, 786-O, 72 h incubation
[14] = Homo sapiens, SK-BR-3, 48 h, read-out: EC50 SK-BR3 (48 h), ATP luminescence, SK-BR3, 48 h incubation
[15] = Homo sapiens, OVCAR-3, 48 h, read-out: EC50 OVCAR3 (48 h), ATP luminescence, OVCAR3, 48 h incubation
[16] = Homo sapiens, RPMI-8226, 72 h, read-out: EC50 RPMI-8226 (72 h), ATP luminescence, RPMI-8226, 72 h incubation
[17] = Homo sapiens, 72 h, read-out: EC50 Raji (72 h), ATP luminescence, Raji, 72 h incubation
[18] = Homo sapiens, SW-620, 96 h, read-out: EC50 SW-620 (96 h), ATP luminescence, SW-620, 96 h incubation
[19] = 3H thymidine method, 72 h incubation, read-out: EC50, HCT-15
[20] = 3H thymidine method, 72 h incubation, read-out: EC50, Hep3B
[21] = 3H thymidine method, 72 h incubation, read-out: EC50, MDA-MB-231
[22] = 3H thymidine method, 72 h incubation, read-out: EC50, U-87 MG
[23] = 3H thymidine method, 72 h incubation, read-out: EC50, NCI-H460
[24] = 3H thymidine method, 72 h incubation, read-out: EC50, A549
[25] = 3H thymidine method, 72 h incubation, read-out: EC50, SKOV3
[26] = 3H thymidine method, 72 h incubation, read-out: EC50, ZR-75
[27] = 3H thymidine method, 72 h incubation, read-out: EC50, CEM-C1
[28] = ATP luminescence, 72 h incubation, read-out: EC50 U-87 MG (72 h)
[29] = ATP luminescence, PC3, 48 h incubation, read-out: EC50 PC3 (48 h)
[30] = ATP luminescence, 786-O, 72 h incubation, read-out: EC50 786-O (72 h)
[31] = ATP luminescence, SK-BR3, 48 h incubation, read-out: EC50 SK-BR3 (48 h)
[32] = ATP luminescence, OVCAR3, 48 h incubation, read-out: EC50 OVCAR3 (48 h)
[33] = ATP luminescence, RPMI-8226, 72 h incubation, read-out: EC50 RPMI-8226 (72 h)
[34] = ATP luminescence, 72 h incubation, read-out: EC50 Raji (72 h)
[35] = ATP luminescence, SW-620, 96 h incubation, read-out: EC50 SW-620 (96 h)

| Compound | EC50 (HCT-15; [3]) | EC50 (Hep3B; [4]) | EC50 (MDA-MB-231; [5]) | EC50 (U-87 MG [1]; [6]) | EC50 (HCT-15; [19]) | EC50 (Hep3B; [20]) | EC50 (U-87 MG [1]; [22]) | EC50 (NCI-H460; [23]) | EC50 (A549; [24]) | EC50 (SKOV3; [25]) | EC50 (ZR-75; [26]) | EC50 (CEM-C1; [27]) | EC50 (U-87 MG [2]; [28]) | EC50 (PC3; [29]) | EC50 (786-O; [30]) | EC50 (SK-BR3; [31]) | EC50 (OVCAR3; [32]) | EC50 (RPMI-8226; [33]) | EC50 (Raji; [34]) | EC50 (SW-620; [35]) | further results |
| --- | --- | --- | --- | --- | --- | --- | --- | --- | --- | --- | --- | --- | --- | --- | --- | --- | --- | --- | --- | --- | --- |
| CC[C@H](C)[C@H](NC(=O)[C@H]1CCCCN1C)C(=O)N(C)[C@H](C[C@@H](OC)c1nc(C(=O)NC(Cc2ccccc2)C[C@H](C)C(=O)O)cs1)C(C)C (stereo partly drawn) [Compound 15] | 67 nM | 1.6 nM | 1.3 nM | 0.42 nM |  |  |  |  |  |  |  |  |  |  |  |  |  |  |  |  | EC50 (NCI-H460; [7]): 2 nM; EC50 (A549; [8]): 2.1 nM; EC50 (SKOV3; [9]): 2.6 nM; EC50 (CEM-C1; [10]): 0.93 nM; EC50 (U-87 MG [2]; [11]): 8.6 nM; EC50 (PC3; [12]): > 100 nM; EC50 (786-O; [13]): 9.4 nM; EC50 (SK-BR3; [14]): 3.9 nM; EC50 (OVCAR3; [15]): > 100 nM; EC50 (RPMI-8226; [16]): 2.6 nM; EC50 (Raji; [17]): 2.5 nM; EC50 (SW-620; [18]): 3.7 nM |
| CC[C@H](C)[C@H](NC(=O)[C@H]1CCCCN1C)C(=O)N(C)[C@H](C[C@@H](OC)c1nc(C(=O)N[C@@H](Cc2ccccc2)C(=O)OC)cs1)C(C)C [Compound 16] |  |  |  |  | 284 nM | > 100 nM | > 100 nM | > 100 nM | > 100 nM | 44 nM | > 100 nM | 11 nM | > 100 nM | > 100 nM | 36 nM | 6.6 nM | > 100 nM | 15 nM | 3 nM | 29 nM | EC50 (MDA-MB-231; [21]): > 100 nM |
| CCC[C@H](NC(=O)[C@H](Cc1ccccc1)NC(=O)c1csc([C@@H](C[C@H](C(C)C)N(C)C(=O)[C@@H](NC(=O)[C@H]2CCCCN2C)[C@@H](C)CC)OC)n1)C(=O)OC [Compound 19] |  |  |  |  | 1070 nM | 52 nM | > 100 nM | > 100 nM | > 100 nM | > 100 nM | 34 nM | 22 nM | > 100 nM | ~33 nM | 40 nM | 3.9 nM | 25 nM | 9.6 nM | 9.2 nM | 14 nM | EC50 (UO-31): > 100 nM |
| CC[C@H](C)[C@H](NC(=O)[C@H]1CCCCN1C)C(=O)N(COC(=O)CC(C)C)[C@H](C[C@@H](OC(C)=O)c1nc(C(=O)N[C@@H](Cc2ccc(N)cc2)CC(C)C(=O)O)cs1)C(C)C (stereo partly drawn) [Compound 54] | 0.44 nM | 0.3 nM | 1.6 nM | 0.11 nM |  |  |  |  |  |  |  |  |  |  |  |  |  |  |  |  | EC50 (NCI-H460; [7]): 0.31 nM; EC50 (A549; [8]): 0.24 nM; EC50 (SKOV3; [9]): 0.34 nM; EC50 (ZR-75; Homo sapiens, ZR75, read-out: EC50, ZR-75, 3H thymidine method, 72 h incubation): 2.2 nM; EC50 (CEM-C1; [10]): 0.38 nM; EC50 (U-87 MG [2]; [11]): 1.6 nM; EC50 (PC3; [12]): 3.1 nM; EC50 (786-O; [13]): 2.6 nM; EC50 (SK-BR3; [14]): 6.2 nM; EC50 (OVCAR3; [15]): > 100 nM; EC50 (RPMI-8226; [16]): 1.6 nM; EC50 (Raji; [17]): 1.2 nM; EC50 (SW-620; [18]): 1.1 nM |
| CC[C@H](C)[C@H](NC(=O)[C@H]1CCCCN1C)C(=O)N(C)[C@H](C[C@@H](OC(C)=O)c1nc(C(=O)N[C@@H](Cc2ccc(N)cc2)C(=O)O)cs1)C(C)C [Compound 56] |  |  |  |  | 2480 nM | > 100 nM | > 100 nM | > 100 nM | > 100 nM | > 100 nM | > 100 nM | > 100 nM | > 100 nM | > 100 nM | > 100 nM | > 100 nM | > 100 nM | 5.7 nM | 24 nM | 28 nM | EC50 (MDA-MB-231; [21]): > 100 nM |
